Molecules are shown by their SMILES. In brackets after ≈: the same amount, converted by molar mass. Read-outs that look alike come from different tables or passages of the source. Marks after values point to notes of the source that are not given here.

The subject of test [1] is Helicobacter pylori BCRC 17027 strain. Briefly: Minimum inhibitory concentration (MIC), agar-dilution method. In kind it is cell-based. To be noted: BCRC17027, agar dilution assay, TSA with 5% sheep blood, 72 hours, 37° C. As for the experimental part: H. pylori BCRC 17027 was obtained from the Bioresources Collection and Research Center (BCRC), Hsinchu, Taiwan, ROC. The H. pylori strain was cultured in 5 mL tryptic soy broth (TSB, each liter containing: 17 g peptone from casein, 3 g peptone from soymeal, 2.5 g dextrose, 5 g sodium chloride, 2.5 g dipotassium phosphate, pH 7.3) with a tryptic soy agar (TSA, each liter containing: 15 g peptone from casein, 5 g peptone from soymeal, 5 g sodium chloride, 15 g agar, pH 7.3) and slant containing 5% (v/v) of defibrinated sheep blood formed at the bottom of the test tube.
The broth was incubated in a microaerophilic jar system (BBL), featuring a gas composition of 5% O2, 10% CO2 and 85% N2 (BD GasPak™ EZ Gas Generating systems), at 37° C. for 72 hours. The cell suspension was then diluted with TSB to provide a cell concentration of 3×10^8 CFUs/mL for antimicrobial testing.
The MIC of the purified substance was determined by the agar-dilution method (Shungu et al., 1987, Antimicrob Agents Chemother, 31: 949-950). A volume of 40 μL of cell suspension (initial bacterial count 3×10^8 CFUs/mL) was spread onto the TSA agar plates containing 5% (v/v) defibrinated sheep blood. […] DMSO was used as control. Metronidazole (MTZ) and clarithromycin (CLA) were co-assayed as the positive reference at concentrations of 8.0-128.0 μg/mL and 0.008-0.128 μg/mL, respectively. Following incubation in a microaerophilic jar system, featuring a gas composition of 5% O2, 10% CO2 and 85% N2, at 37° C. for 72 hours, the colonies that had formed on the plates were enumerated. The MIC was defined as the minimum concentration of the test sample (antibacterial agent) in a given culture medium on which bacteria are not able to form colonies.

Test [2] shares this test system. Put plainly: Minimum bactericidal concentration (MBC), broth dilution. In kind it is cell-based. To be noted: broth dilution assay, 1 hour exposure in Brucella broth, then plated 72 hours, means of three experiments.
The test system of test [3] is Helicobacter pylori. To be noted: A Vasquez et al., 1996; cited from earlier work.
Test [4] concerns H. pylori BCRC 17027. Briefly: Inhibitory-zone measurement (agar well diffusion assay). In kind it is cell-based, Helicobacter pylori. To be noted: for zone of inhibition at 40000 µg/mL: Helicobacter pylori, BCRC17027, 72 h, read-out: The diameter of inhibitory-zone. As for the experimental part:
H. pylori BCRC 17027 was obtained from the Bioresources Collection and Research Center (BCRC), Hsinchu, Taiwan, ROC. […] The cell suspension was then diluted with TSB to provide a cell concentration of 3×10^8 CFUs/mL for antimicrobial testing. An agar well diffusion assay was used to determine if H. pylori was susceptible to the anti-bacterial activity of the various fractions and isolates (al Somal et al., 1994, J R Soc Med, 87: 9-12). A volume of 100 μL for each of the bacterial suspensions tested (3×10^8 CFUs/mL) was spread onto the TSA agar plate containing 5% (v/v) defibrinated sheep blood. Wells sized 7 mm in diameter were punched on the plates with 5 μL of the Fr1-Fr5 and ovatodiolide (40 mg/mL; DMSO as solvent) to be individually incorporated into the wells. DMSO was used as negative control and metronidazole (MTZ, 40 mg/mL) was used as positive control.

The mark [5] stands for this setting: Helicobacter pylori, BCRC17027, read-out: MBC.
Where [6] appears, read: 5 μL of 40 mg/mL in DMSO per 7 mm well (200 μg/disk), 72 hours, 37° C., microaerophilic, mean±S.D.

For `CC[C@H]1OC(=O)[C@H](C)[C@@H](O[C@H]2C[C@@](C)(OC)[C@@H](O)[C@H](C)O2)[C@H](C)[C@@H](O[C@@H]2O[C@H](C)C[C@H](N(C)C)[C@H]2O)[C@](C)(OC)C[C@@H](C)C(=O)[C@H](C)[C@@H](O)[C@]1(C)O` [Clarithromycin], the MIC (usually the lowest concentration found to suppress growth) in test [1] worked out at 0.032 µg/mL (≈ 0.0428 µM). Further, in test [2] (setting [5]), the minimal bactericidal concentration (MBC) – broadly, the smallest concentration meeting the test's criterion for killing – is 1 µg/mL (≈ 1.34 µM). Also, the “minimum inhibitory concentration of known antibiotics” value in test [3] is 0.25 µg/mL.
Consider `Cc1ncc([N+](=O)[O-])n1CCO` [Metronidazole], for which the zone of inhibition at 40000 µg/mL in test [4] (setting [6]) was found to be 21.8 ± 3.1 mm. Moreover, the “Anti-Helicobacter pylori activity in inhibitory-zone assay (in words)” value in test [4] (agar well diffusion) was “inhibition halos smaller than ovatodiolide”. Besides, 64 µg/mL (≈ 374 µM) was the least that counted as inhibitory in test [1] (MIC). Moreover, the minimum bactericidal concentration (MBC) in test [2] (setting [5]) amounted to 2560 µg/mL (≈ 15000 µM). For the same compound, the “minimum inhibitory concentration of known antibiotics” value in test [3] is 64 µg/mL.
For `C=C1C(=O)OC2/C=C(\C)C[C@H]3C=C(CC/C=C(\C)CC[C@H]12)C(=O)O3` (stereo partly shown) [Ovatodiolide, ovatodiolide], the “The diameter of inhibitory-zone” value in test [4] (setting [6]) is 34.4 ± 2.0 mm. In test [4] (setting [6]), the zone of inhibition at 40000 µg/mL is 34 mm. This compound also registered a minimum inhibitory concentration (MIC) in test [1] of 16 µg/mL (≈ 48.7 µM). Besides, the MBC in test [2] (setting [5]) is 80 µg/mL (≈ 244 µM); in test [2], 80^b μg/mL.

The record behind these values is patent US20110319485A1, “Composition Having Anti-Helicobacter Pylori Activity And Its Application To Inhibit Helicobacter Pylori” (Yushen Biotechnology & Medical Co, Ltd., priority 2010, published 2011).
